Measurements from the supplement of paper PMC13207355.

Legend:
Settings in all cases: exposure time: 72 h
E34 [1] = patient-derived glioblastoma stem cells of proneural subtype; assay: surviving fraction (nuclei count normalised to DMSO); higher = more cells surviving (less toxic)
E57 [2] = patient-derived glioblastoma stem cells of mesenchymal subtype; assay: as above
E31 [3] = patient-derived glioblastoma stem cells of proneural subtype; assay: as above
E28 [4] = patient-derived glioblastoma stem cells of classical subtype; assay: as above
E21 [5] = patient-derived glioblastoma stem cells of mesenchymal subtype; assay: as above
FT3469 [6] = normal neural stem cell line; assay: as above
E13 [7] = patient-derived glioblastoma stem cells of classical subtype; assay: as above
E34 [8] = assay: phenotypic distance (Euclidean, principal components) from DMSO controls (arbitrary units); higher = stronger morphological change
E57 [9] = assay: as above
E31 [10] = assay: as above
E28 [11] = assay: as above
E21 [12] = assay: as above
FT3469 [13] = assay: as above
E13 [14] = assay: as above
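Throughout, for phenotypic distance (Euclidean, principal components) from DMSO controls: cell Painting imaging in 384-well plates, CellProfiler features reduced to at least 20 principal components, Euclidean distance versus same-plate DMSO vehicle wells (0.1% v/v), median over six images per well.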
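Throughout, for surviving fraction (nuclei count normalised to DMSO): nuclei counted by high-content imaging of Hoechst-stained cells in laminin-coated 384-well plates, relative to 0.1% DMSO vehicle wells, with staurosporine as cell-death control.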

N=C(NCCCCCCNC(=N)NC(=N)Nc1ccc(Cl)cc1)NC(=N)Nc1ccc(Cl)cc1 [Chlorhexidine]
Settings	phenotypic distance	surviving fraction
E13 [7], 4.1 nM	–	1.03
E13 [7], 12.3 nM	–	1.05
E13 [7], 37 nM	–	0.948
E13 [7], 111.1 nM	–	1.01
E13 [7], 333.3 nM	–	0.969
E13 [7], 1000 nM	–	0.943
E13 [7], 3000 nM	–	0.409
E13 [14], 4.1 nM	0.429	–
E13 [14], 12.3 nM	1.39	–
E13 [14], 37 nM	0.262	–
E13 [14], 111.1 nM	2.5	–
E13 [14], 333.3 nM	0.491	–
E13 [14], 1000 nM	0.464	–
E13 [14], 3000 nM	3.49	–
E21 [5], 4.1 nM	–	0.973
E21 [5], 12.3 nM	–	1.01
E21 [5], 37 nM	–	0.964
E21 [5], 111.1 nM	–	0.946
E21 [5], 333.3 nM	–	0.941
E21 [5], 1000 nM	–	0.899
E21 [5], 3000 nM	–	0.259
E21 [12], 4.1 nM	0.562	–
E21 [12], 12.3 nM	0.828	–
E21 [12], 37 nM	0.696	–
E21 [12], 111.1 nM	0.95	–
E21 [12], 333.3 nM	0.783	–
E21 [12], 1000 nM	0.943	–
E21 [12], 3000 nM	6.35	–
E28 [4], 4.1 nM	–	1.05
E28 [4], 12.3 nM	–	1.13
E28 [4], 37 nM	–	1.1
E28 [4], 111.1 nM	–	1.16
E28 [4], 333.3 nM	–	1.11
E28 [4], 1000 nM	–	0.694
E28 [4], 3000 nM	–	0.289
E28 [11], 4.1 nM	0.971	–
E28 [11], 12.3 nM	0.644	–
E28 [11], 37 nM	0.865	–
E28 [11], 111.1 nM	0.807	–
E28 [11], 333.3 nM	0.749	–
E28 [11], 1000 nM	1.41	–
E28 [11], 3000 nM	3.14	–
E31 [3], 4.1 nM	–	0.921
E31 [3], 12.3 nM	–	0.969
E31 [3], 37 nM	–	1.07
E31 [3], 111.1 nM	–	1.04
E31 [3], 333.3 nM	–	0.889
E31 [3], 1000 nM	–	0.765
E31 [3], 3000 nM	–	0.401
E31 [10], 4.1 nM	0.524	–
E31 [10], 12.3 nM	0.525	–
E31 [10], 37 nM	0.809	–
E31 [10], 111.1 nM	0.944	–
E31 [10], 333.3 nM	1.22	–
E31 [10], 1000 nM	2.29	–
E31 [10], 3000 nM	2.76	–
E34 [1], 4.1 nM	–	0.914
E34 [1], 12.3 nM	–	0.993
E34 [1], 37 nM	–	0.955
E34 [1], 111.1 nM	–	0.752
E34 [1], 333.3 nM	–	1.03
E34 [1], 1000 nM	–	0.892
E34 [1], 3000 nM	–	0.659
E34 [8], 4.1 nM	0.526	–
E34 [8], 12.3 nM	0.799	–
E34 [8], 37 nM	0.756	–
E34 [8], 111.1 nM	0.826	–
E34 [8], 333.3 nM	0.445	–
E34 [8], 1000 nM	0.747	–
E34 [8], 3000 nM	3.01	–
E57 [2], 4.1 nM	–	0.972
E57 [2], 12.3 nM	–	1.03
E57 [2], 37 nM	–	0.962
E57 [2], 111.1 nM	–	1.03
E57 [2], 333.3 nM	–	0.967
E57 [2], 1000 nM	–	0.838
E57 [2], 3000 nM	–	0.307
E57 [9], 4.1 nM	0.332	–
E57 [9], 12.3 nM	0.353	–
E57 [9], 37 nM	0.497	–
E57 [9], 111.1 nM	0.85	–
E57 [9], 333.3 nM	0.64	–
E57 [9], 1000 nM	1.98	–
E57 [9], 3000 nM	4.85	–
FT3469 [6], 4.1 nM	–	1.05
FT3469 [6], 12.3 nM	–	0.955
FT3469 [6], 37 nM	–	1.1
FT3469 [6], 111.1 nM	–	0.981
FT3469 [6], 333.3 nM	–	0.883
FT3469 [6], 1000 nM	–	0.806
FT3469 [6], 3000 nM	–	0.537
FT3469 [13], 4.1 nM	1.53	–
FT3469 [13], 12.3 nM	0.951	–
FT3469 [13], 37 nM	0.654	–
FT3469 [13], 111.1 nM	0.806	–
FT3469 [13], 333.3 nM	0.554	–
FT3469 [13], 1000 nM	1.03	–
FT3469 [13], 3000 nM	2.68	–
